Values after ≈ are worked out from the molar mass of the structure shown. Where two headings read alike, the source gives them in different places.
What was measured:
[1] = test system: Escherichia Coli Exp. TO26 B6; experiment: MIC, liquid medium dilution; assay type: cell-based
Procedure: (§1) The method used was a dilution of a liquid medium where a series of tubes received the same quantity of a sterile nutritive media and increasing doses of the test compounds were placed therein. Then each tube was seeded with a bacterial strain and was incubated for 24 or 48 hours at 37° C. in an oven. The increasing inhibition was determined by transillumination to determine the minimum inhibiting concentration (MIC in μg/ml) and the results are reported in the following Tables.

[2] = test system: Escherichia Coli Resistant Tetracycline ATCC 11 303; experiment: MIC, liquid medium dilution; assay type: cell-based
Procedure: as §1

[3] = test system: Streptococcus pyogenes A 561; experiment: MIC, liquid medium dilution; assay type: cell-based
Procedure: as §1

[4] = test system: Escherichia Coli Resistant Gentamicine, Tobramycine R 55 123 D; experiment: MIC, liquid medium dilution; assay type: cell-based
Procedure: as §1

[5] = test system: Klebsiella pneumoniae 2 536 Resistant Gentamicine; experiment: MIC, liquid medium dilution; assay type: cell-based
Procedure: as §1

[6] = test system: Staphylococcus aureus ATCC 6 538 Pen-Sensitive; experiment: MIC, liquid medium dilution; assay type: cell-based
Procedure: as §1

[7] = test system: Escherichia Coli Sensitive Tetracycline ATCC 9 637; experiment: MIC, liquid medium dilution; assay type: cell-based
Procedure: as §1

[8] = test system: Staphylococcus aureus exp. n° 54 146; experiment: MIC, liquid medium dilution; assay type: cell-based
Procedure: as §1

[9] = test system: Bacillus subtilis ATCC 6 633; experiment: MIC, liquid medium dilution; assay type: cell-based
Procedure: as §1

Providencia Du 48 = experiment: MIC, liquid medium dilution; assay type: cell-based
Procedure: as §1

[10] = test system: Streptococcus faecalis 99 F 74; experiment: MIC, liquid medium dilution; assay type: cell-based; conditions: Enterococcus faecalis
Procedure: as §1

[11] = test system: Staphylococcus aureus UC 1 128 Pen-Resistant; experiment: MIC, liquid medium dilution; assay type: cell-based
Procedure: as §1

[12] = test system: Proteus mirabilis (indol-) A 235; experiment: MIC, liquid medium dilution; assay type: cell-based
Procedure: as §1

[13] = test system: Serratia Resistant Gentamicine 2 532; experiment: MIC, liquid medium dilution; assay type: cell-based
Procedure: as §1

Enterobacter cloacae 681 = experiment: MIC, liquid medium dilution; assay type: cell-based; conditions: read-out: MIC
Procedure: as §1

[14] = test system: Klebsiella pneumoniae Exp. 52 145; experiment: MIC, liquid medium dilution; assay type: cell-based
Procedure: as §1

[15] = test system: Streptococcus faecalis 5 432; experiment: MIC, liquid medium dilution; assay type: cell-based
Procedure: as §1

[16] = test system: Salmonella typhimurium 420; experiment: MIC, liquid medium dilution; assay type: cell-based; conditions: Salmonella enterica
Procedure: as §1

[17] = test system: Escherichia coli (T) O26 B6; experiment: Experimental infection with Escherichia coli (T) O26 B6 in mice; assay type: in vivo
Procedure: The products of Example 6 and 10 were studied for their activity against an experimental infection of Escherichia coli in groups of 10 male mice weighing about 22 g. The mice received an intraperitoneal injection of 0.5 ml of a 24 hour old culture in a nutritive media of Escherichia coli (T) O26 B6 of the Pasteur Institute diluted 1/5.5 with distilled water. The test product was administered subcutaneously or orally 1 hour and 5 and 24 hours after the infection and the number of dead was determined during 8 days.

[18] = test system: Proteus vulgaris (indol+) A 232; experiment: MIC, liquid medium dilution; assay type: cell-based
Procedure: as §1

[19] = Enterococcus faecalis, 5432, 24 h

CO/N=C(\C(=O)NC1C(=O)N2C(C(=O)O)=C(CSc3nnc(C)s3)CS[C@H]12)c1csc(N)n1 (stereo partly shown) [Example 2, 7-[{2-(2-amino-4-thiazolyl)-2-methoxyiminoacetyl}amino]-3-[(2-methyl-1,3,4-thiadiazol-5-yl)-thiomethyl]-ceph-3-eme-4-carboxylic acid]
MIC ([1]; 24 h): 0.4 µg/mL (≈ 0.758 µM) | MIC ([1]; 48 h): 0.4 µg/mL (≈ 0.758 µM) | MIC ([2]; ATCC11, 24 h, read-out: MIC): 0.1 µg/mL (≈ 0.19 µM) | MIC ([2]; ATCC11, 48 h): 0.2 µg/mL (≈ 0.379 µM) | MIC ([3]; A561, 24 h, read-out: MIC): ≤ 0.02 µg/mL | MIC ([3]; A561, 48 h, read-out: MIC): ≤ 0.02 µg/mL | MIC ([4]; 24 h): 0.4 µg/mL (≈ 0.758 µM) | MIC ([4]; 48 h): 0.4 µg/mL (≈ 0.758 µM) | MIC ([5]; 24 h, read-out: MIC): 0.6 µg/mL (≈ 1.14 µM) | MIC ([5]; 48 h): 1 µg/mL (≈ 1.9 µM) | MIC ([6]; ATCC6, 24 h): 1 µg/mL (≈ 1.9 µM) | MIC ([6]; ATCC6, 48 h): 1 µg/mL (≈ 1.9 µM) | MIC ([7]; ATCC9, 24 h, read-out: MIC): 0.6 µg/mL (≈ 1.14 µM) | MIC ([7]; ATCC9, 48 h): 0.6 µg/mL (≈ 1.14 µM) | MIC ([8]; 24 h, read-out: MIC): 2 µg/mL (≈ 3.79 µM) | MIC ([8]; 48 h, read-out: MIC): 2 µg/mL (≈ 3.79 µM) | MIC ([9]; ATCC6, 24 h, read-out: MIC): 0.6 µg/mL (≈ 1.14 µM) | MIC ([9]; ATCC6, 48 h): 1 µg/mL (≈ 1.9 µM) | MIC (Providencia Du 48; DU48, 24 h, read-out: MIC): 2 µg/mL (≈ 3.79 µM) | MIC (Providencia Du 48; DU48, 48 h, read-out: MIC): 5 µg/mL (≈ 9.48 µM) | MIC ([10]; 99F74, 24 h, read-out: MIC): 2 µg/mL (≈ 3.79 µM) | MIC ([10]; 99F74, 48 h, read-out: MIC): 5 µg/mL (≈ 9.48 µM) | MIC ([11]; UC1, 24 h, read-out: MIC): 2 µg/mL (≈ 3.79 µM) | MIC ([11]; UC1, 48 h, read-out: MIC): 2 µg/mL (≈ 3.79 µM) | MIC ([12]; 24 h): 0.2 µg/mL (≈ 0.379 µM) | MIC ([12]; 48 h): 0.2 µg/mL (≈ 0.379 µM) | MIC ([13]; 24 h): 1 µg/mL (≈ 1.9 µM) | MIC ([13]; 48 h): 1 µg/mL (≈ 1.9 µM) | MIC (Enterobacter cloacae 681; Enterobacter cloacae, 681, 24 h): 40 µg/mL (≈ 75.8 µM) | MIC (Enterobacter cloacae 681; Enterobacter cloacae, 681, 48 h): 40 µg/mL (≈ 75.8 µM) | MIC ([14]; EXP.52145, 24 h): 0.05 µg/mL (≈ 0.0948 µM) | MIC ([14]; EXP.52145, 48 h, read-out: MIC): 0.1 µg/mL (≈ 0.19 µM) | MIC [15, 19]: 1 µg/mL (≈ 1.9 µM) | MIC ([15]; Enterococcus faecalis, 5432, 48 h, read-out: MIC): 2 µg/mL (≈ 3.79 µM) | MIC ([16]; 24 h, read-out: MIC): 0.6 µg/mL (≈ 1.14 µM) | MIC ([16]; 48 h): 0.6 µg/mL (≈ 1.14 µM)

CO/N=C(\C(=O)NC1C(=O)N2C(C(=O)O)=C(C)CSC12)c1csc(N)n1 (stereo not shown) [Example 10, 7-[{2-(2-amino-4-thiazolyl)-2-methoxyimino}acetylamino]-3-methyl-ceph-3-eme-4-carboxylic acid]
Mice surviving on the 8th day ([17]; per os, 3 × 0,5 mg): 2/10 | Mortality after 5 J (number of dead of 10) ([17]; per os, 3 × 0,5 mg): 1 | Mortality after 6 J (number of dead of 10) ([17]; per os, 3 × 0,5 mg): 2 | Mortality after 21 H 30 (number of dead of 10) ([17]; per os, 3 × 0,5 mg): 2 | Mortality after 47 H (number of dead of 10) ([17]; per os, 3 × 0,5 mg): 1 | Mortality after 70 H (number of dead of 10) ([17]; per os, 3 × 0,5 mg): 2 | Mice surviving on the 8th day ([17]; per os, 3 × 0,25 mg): 2/10 | Mortality after 21 H 30 (number of dead of 10) ([17]; per os, 3 × 0,25 mg): 6 | Mortality after 24 H 30 (number of dead of 10) ([17]; per os, 3 × 0,25 mg): 1 | Mortality after 24 H (number of dead of 10) ([17]; per os, 3 × 0,25 mg): 1 | Mice surviving on the 8th day ([17]; per os, 3 × mg): 7/10 | Mortality after 21 H 30 (number of dead of 10) ([17]; per os, 3 × mg): 1 | Mortality after 47 H (number of dead of 10) ([17]; per os, 3 × mg): 2 | Mice surviving on the 8th day ([17]; s. c., 3 × 0,1 mg): 6/10 | Mortality after 21 H 30 (number of dead of 10) ([17]; s. c., 3 × 0,1 mg): 3 | Mortality after 47 H (number of dead of 10) ([17]; s. c., 3 × 0,1 mg): 1 | Mice surviving on the 8th day ([17]; s. c., 3 × 0,5 mg): 8/10 | Mortality after 47 H (number of dead of 10) ([17]; s. c., 3 × 0,5 mg): 2 | Mice surviving on the 8th day ([17]; s. c., 3 × 0,25 mg): 7/10 | Mortality after 5 H 30 (number of dead of 10) ([17]; s. c., 3 × 0,25 mg): 1 | Mortality after 28 H (number of dead of 10) ([17]; s. c., 3 × 0,25 mg): 1 | Mortality after 54 H (number of dead of 10) ([17]; s. c., 3 × 0,25 mg): 1 | MIC ([1]; 24 h): 0.4 µg/mL (≈ 1.01 µM) | MIC ([1]; 48 h): 0.6 µg/mL (≈ 1.51 µM) | MIC ([2]; ATCC11, 24 h): 0.2 µg/mL (≈ 0.503 µM) | MIC ([2]; ATCC11, 48 h): 0.2 µg/mL (≈ 0.503 µM) | MIC ([3]; A561, 24 h): 0.05 µg/mL (≈ 0.126 µM) | MIC ([3]; A561, 48 h, read-out: MIC): 0.05 µg/mL (≈ 0.126 µM) | MIC ([4]; 24 h, read-out: MIC): 0.6 µg/mL (≈ 1.51 µM) | MIC ([4]; 48 h): 0.6 µg/mL (≈ 1.51 µM) | MIC ([5]; 24 h, read-out: MIC): 0.6 µg/mL (≈ 1.51 µM) | MIC ([5]; 48 h): 2 µg/mL (≈ 5.03 µM) | MIC ([6]; ATCC6, 24 h): 20 µg/mL (≈ 50.3 µM) | MIC ([6]; ATCC6, 48 h): 40 µg/mL (≈ 101 µM) | MIC ([7]; ATCC9, 24 h, read-out: MIC): 0.6 µg/mL (≈ 1.51 µM) | MIC ([7]; ATCC9, 48 h): 0.6 µg/mL (≈ 1.51 µM) | MIC ([18]; 24 h): 3 µg/mL (≈ 7.55 µM) | MIC ([18]; 48 h): 20 µg/mL (≈ 50.3 µM) | MIC ([8]; 24 h): 40 µg/mL (≈ 101 µM) | MIC ([8]; 48 h): 40 µg/mL (≈ 101 µM) | MIC ([9]; ATCC6, 24 h): 20 µg/mL (≈ 50.3 µM) | MIC ([9]; ATCC6, 48 h): > 40 µg/mL | MIC (Providencia Du 48; DU48, 24 h): 2 µg/mL (≈ 5.03 µM) | MIC (Providencia Du 48; DU48, 48 h): 5 µg/mL (≈ 12.6 µM) | MIC ([10]; 99F74, 24 h): 20 µg/mL (≈ 50.3 µM) | MIC ([10]; 99F74, 48 h): > 40 µg/mL | MIC ([11]; UC1, 24 h): 40 µg/mL (≈ 101 µM) | MIC ([11]; UC1, 48 h): 40 µg/mL (≈ 101 µM) | MIC ([12]; 24 h, read-out: MIC): 0.1 µg/mL (≈ 0.252 µM) | MIC ([12]; 48 h): 0.2 µg/mL (≈ 0.503 µM) | MIC ([13]; 24 h): 5 µg/mL (≈ 12.6 µM) | MIC ([13]; 48 h, read-out: MIC): 10 µg/mL (≈ 25.2 µM) | MIC ([14]; EXP.52145, 24 h, read-out: MIC): 0.1 µg/mL (≈ 0.252 µM) | MIC ([14]; EXP.52145, 48 h, read-out: MIC): 0.1 µg/mL (≈ 0.252 µM) | MIC [15, 19]: 20 µg/mL (≈ 50.3 µM) | MIC ([15]; Enterococcus faecalis, 5432, 48 h): > 40 µg/mL | MIC ([16]; 24 h, read-out: MIC): 0.6 µg/mL (≈ 1.51 µM) | MIC ([16]; 48 h): 0.6 µg/mL (≈ 1.51 µM)

Reference: patent US4476122A, “Alkyloximes of 7-amino-thiazolyl-acetamido-cephalosporanic acids” (Roussel Uclaf, priority 1976, dated 1984)
